# Target: T1, full-length Tau (human Tau40wt) (Homo sapiens, UniProt P10636)
# T1 construct: gene MAPT; full-length recombinant Tau (Tau40wt, 441 residues)
# Test: isothermal titration calorimetry ([…] Tau titrated with […] EGCG)
# Format: binding
# T1 sequence (P10636 1-441 isoform P10636-8): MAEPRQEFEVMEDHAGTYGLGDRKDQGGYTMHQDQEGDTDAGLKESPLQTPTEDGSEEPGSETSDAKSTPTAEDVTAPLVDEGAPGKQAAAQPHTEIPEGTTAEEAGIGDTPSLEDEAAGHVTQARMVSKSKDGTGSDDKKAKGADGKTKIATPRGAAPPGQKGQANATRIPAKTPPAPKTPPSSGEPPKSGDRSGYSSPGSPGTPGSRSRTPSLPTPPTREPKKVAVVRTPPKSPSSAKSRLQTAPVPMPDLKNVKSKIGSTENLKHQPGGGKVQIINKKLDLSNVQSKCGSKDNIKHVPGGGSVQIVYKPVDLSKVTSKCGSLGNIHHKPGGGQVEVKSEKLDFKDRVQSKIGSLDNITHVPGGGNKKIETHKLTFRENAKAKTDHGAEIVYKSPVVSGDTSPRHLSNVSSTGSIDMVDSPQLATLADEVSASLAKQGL
smiles,measurement,value
O=C(O[C@@H]1Cc2c(O)cc(O)cc2O[C@@H]1c1cc(O)c(O)c(O)c1)c1cc(O)c(O)c(O)c1 [EGCG],Kd,74 nM
